Source: patent US20230277564A1, “CANNABINOIDAL COMPOSITIONS FOR THE TREATMENT OF DISEASE” (The State of Israel, Ministry of Agriculture & Rural …, priority 2020, published 2023)

What was measured:
Format in all cases: cell-based
[1] = tested on: IL-6 secreted from A549 cells; assay: IL-6 secretion from TNFα-treated A549 cells (ELISA); settings: for IL-6 secretion: at the concentration and ratio found in 10 μg/ml FCBD:std
Method: (§1) Cell cultures—The lung cancer cell line A549 (ATCC® CCL-185™) was cultured in DMEM (01-055-1A, Biological Industries, Israel) growth media supplemented with 10% FBS (04-127-1A, Biological Industries, Israel), 1% […], 1% pen-strep and plasmocin. Macrophage cell line KG1 (ATCC® CCL-246™) was cultured in IMDM (01-058-1A; Biological Industries, Israel) containing 20% FBS and 1% pen-strep and plasmocin. IMDM media supplemented with 10 ng/mL PMA, 5% FBS, 1% pen-strep and plasmocin was used as stimulating environment for the differentiation of KG1 cells. Differentiated cells with typical morphology were attached to the plate surface within 1-2 days of initiation^39.
(§2) Determination of IL levels and cell viability—IL-6 and IL-8 levels were determined as described previously^40 with the following modifications: A549 cells were plated at 5×10^4 cells per well in DMEM complete media (400 μL) in a 24-well cell culture plate. Cells were allowed to attach and incubated with complete DMEM at 37° C. in a humidified atmosphere containing 5% CO2-95% air. Following overnight incubation, cells were treated with 300 ng/mL TNFα with or without plant extract or fraction/compounds. IL-6 and IL-8 secretion levels were analyzed after 4 hours of incubation. Supernatant samples were taken and tested using IL-6 and IL-8 ELISA kits (DY206 and DY208 respectively, R&D Systems, Minneapolis, Minn., USA). Dexamethasone was used as a positive control. For cell viability, an Alamar Blue (resazurin) assay was performed on each well as described previously^40. For dose response assays, data points were connected by non-linear regression lines of the sigmoidal dose-response relation. GraphPad Prism (GraphPad Software Inc., San Diego, USA) was employed to produce dose-response curves and IC50 doses were calculated using nonlinear regression analysis.

[2] = tested on: IL-8 secreted from A549 cells; assay: IL-8 secretion from TNFα-treated A549 cells (ELISA); settings: for IL-8 secretion: at the concentration and ratio found in 10 μg/ml FCBD:std
Method: as §1, §2

CD36 = assay: qPCR of CD36 mRNA in PMA-treated KG1 cells; settings: FCBD and FCBD:std 7 μg/mL, Palmitic acid 150 μM, versus vehicle control
Method: as §1
(§3) Quantitative real-time (qRT) PCR—qRT PCR was effected as described^38. Briefly, cells were seeded in a 6-well plate at a concentration of 1.5×10^6 cells in 3 mL per well. Following 24 hours incubation, cells were treated with extract/fraction/compounds for 6 hours. Cells were harvested and RNA was extracted using TRI reagent (T9424, Sigma Aldrich, USA). RNA was reverse-transcribed in a total volume of 20 μL (PB30.11-10; qPCRBIO), according to manufacturer's protocol. PCR was performed in triplicate using qPCR SyGreen Blue Mix (PB20.16-20, qPCRBIO) and a StepOnePlus system (Applied Biosystems). […]

[3] = tested on: IL-8 secreted from KG1 cells; assay: IL-8 secretion from KG1 cells treated with TNFα (ELISA); settings: 300 ng/mL TNFα, 4 hours, FCBD or FCBD:std 10 μg/mL or indicated concentrations, Dex 4 μg/mL
Method: as §1
Determination of IL levels and cell viability—IL-6 and IL-8 levels were determined as described previously^40 with the following modifications: A549 cells were plated at 5×10^4 cells per well in DMEM complete media (400 μL) in a 24-well cell culture plate. Cells were allowed to attach and incubated with complete DMEM at 37° C. in a humidified atmosphere containing 5% CO2-95% air. […] IL-6 and IL-8 secretion levels were analyzed after 4 hours of incubation. […] GraphPad Prism (GraphPad Software Inc., San Diego, USA) was employed to produce dose-response curves and IC50 doses were calculated using nonlinear regression analysis.

IL-8 = assay: qPCR of IL-8 mRNA in PMA-treated KG1 cells (differentiated macrophages); settings: 6 hours, FCBD and FCBD:std 7 μg/mL, Dex 8 μg/mL, relative to control
Method: as §1, §3

CCL2 = assay: qPCR of CCL2 mRNA in PMA-treated KG1 cells (differentiated macrophages); settings: 6 hours, FCBD and FCBD:std 7 μg/mL, Dex 8 μg/mL, relative to control
Method: as §1, §3

IL-6 = assay: qPCR of IL-6 mRNA in PMA-treated KG1 cells (differentiated macrophages); settings: 6 hours, FCBD and FCBD:std 7 μg/mL, Dex 8 μg/mL, relative to control
Method: as §1, §3

[4] = higher or lower concentrations of CBD than 3.0 μg/mL

SMILES: Cc1c(C(=O)NN2CCCCC2)nn(-c2ccc(Cl)cc2Cl)c1-c1ccc(I)cc1 [CB1 IA]
- IL-6 levels, inverse agonist alone ([1]; treatment with IA only): reduction
- IL-8 levels, inverse agonist alone ([2]; treatment with IA only): reduction

SMILES: C=C(C)[C@@H]1CCC(C)=C[C@H]1c1c(O)cc(CCCCC)cc1O [CBD, cannabidiol]
- IL-6 levels, anti-inflammatory activity ([1]; CBD alone at 3.0 μg/mL): showed anti-inflammatory activity
- IL-6 secretion [1]: did not lead to such a reduction
- activity in reducing IL-6 levels [1, 4]: lower and/or non-significant activity
- IL-8 levels, anti-inflammatory activity ([2]; CBD alone at 3.0 μg/mL): showed anti-inflammatory activity
- IL-8 secretion [2]: did not lead to such a reduction
- activity in reducing IL-8 levels [2, 4]: lower and/or non-significant activity

SMILES: CCCCCc1cc(O)c(C/C=C(\C)CCC=C(C)C)c(O)c1 [CBG, cannabigerol]
- IL-6 secretion [1]: did not lead to such a reduction
- IL-8 secretion [2]: did not lead to such a reduction

SMILES: CCCCCCCCCCCCCCCC(=O)O [PA, Palmitic acid]
- mRNA expression of CD36 (CD36): reduced

SMILES: CCCc1cc(O)c2c(c1)OC(C)(C)[C@@H]1CCC(C)=C[C@@H]21 [THCV, tetrahydrocannabivarin]
- IL-6 secretion [1]: did not lead to such a reduction
- IL-8 secretion [2]: did not lead to such a reduction

SMILES: C[C@@H]1C[C@H]2[C@@H]3CCC4=CC(=O)C=C[C@]4(C)[C@@]3(F)[C@@H](O)C[C@]2(C)[C@@]1(O)C(=O)CO [dexamethasone, Dexamethasone]
- IL-8 secretion from KG1 cells [3]: no effect
- increase of IL-8 mRNA expression level (IL-8): no effect
- increase of CCL2 mRNA expression level (CCL2): no effect
- increase of IL-6 mRNA expression level (IL-6): no effect
